Data: patent US12496320B2, “Lactobacillus sp. strain and use thereof” (LG HOUSEHOLD & HEALTH CARE LTD., priority 2020, dated 2025)

Tests used:
Type in all cases: cell-based
MNT-1 melanoma cells = test: Melanin production inhibitory ability; conditions: 200 μg/mL, 72 hours
Experimental: The melanin production inhibitory ability (brightening) of the Lactobacillus pentosus […]-1 strain of the present invention was investigated. Specifically, MNT-1 melanoma cells were prepared by adding 10% FBS to DMEM (Dulbecco's Modified Eagle's Medium) as a basal medium. Then, the MNT-1 melanoma cells were seeded in a 6-well plate at a concentration of 1 to 2×10^5 cells/mL and cultured for 24 hours. Subsequently, the strain of the present invention was treated, and the cells were cultured for 72 hours and then recovered. Then, after centrifugation at 13,000 rpm for 1 minute and removal of the supernatant, 300 μL of a 0.5% Triton X-100 solution was added to the pellet to lyse the cells. Thereafter, centrifugation was performed at 13,000 rpm for 3 minutes, and the pellet and supernatant were recovered. Then, 100 μL of 0.5N NaOH was added to the pellet, and the cells were incubated overnight to dissolve melanin, and then the absorbance at 450 nm was measured using an ELISA reader.

skin fibroblasts = test: Collagen synthesis effect, ELISA; conditions: concentration 100 (unit not given), 24 hours
Experimental: The efficacy of collagen synthesis was investigated for the Lactobacillus pentosus […]-1 strain of the present invention. Specifically, after primary culture of skin fibroblasts, DMEM (Dulbecco's Modified Eagle's Medium) with an addition of 10% FBS was used as a basal medium for the skin fibroblasts. Then, the skin fibroblasts were seeded in a 48-well plate at a concentration of 2 to 5×10^4 cells/mL and cultured for 24 hours. Subsequently, the growth medium was removed, and a medium containing the strain of the present invention (without FBS added) was added, and the cells were cultured for 24 hours, and thereafter the cell culture solution was taken and subjected to ELISA analysis.

[1] = system: raw 264.7 mouse macrophages; test: Nitric oxide production inhibitory ability, GRIESS method, LPS stimulated; conditions: 100 uM, 500 ng/mL LPS
Experimental: The NO production inhibitory ability of the Lactobacillus pentosus NIFSLG-1 strain of the present invention was investigated. Specifically, the nitric oxide (NO) production ability in raw 264.7 mouse macrophages was evaluated for anti-inflammatory efficacy using the GRIESS method. First, the Raw 264.7 cells (2×10^5 cells/well) were dispensed into a 24-well culture plate, cultured in a DMEM medium containing 10% FBS (fetal bovine serum) for 24 hours, and then cultured in a medium without FBS for 12 hours. Subsequently, […] and pretreated for 30 minutes, and added to the cells with LPS (lipopolysaccharide) to a final concentration of 500 ng/ml, and then cultured for 18 hours.
Thereafter, the supernatant was recovered, and the GRIESS reagent was added, followed by reacting at room temperature for 15 minutes, and the absorbance was measured at 540 nm to evaluate the relative NO production and production inhibitory ability.

`OC[C@H]1O[C@@H](Oc2ccc(O)cc2)[C@H](O)[C@@H](O)[C@@H]1O` [Arbutin] was tested, and the “Melanin content (% control)” value (MNT-1 melanoma cells) was 74.37 % control.

`O=C1O[C@H]([C@@H](O)CO)C(O)=C1O` [Vita C] was tested, and the “Collagen (% control)” value (skin fibroblasts) was 161.91 % control.

For `CNC(=N)NCCC[C@H](N)C(=O)O` [L-NMMA], the “Inhibition Rate (% control) of NO production” value [1] was 81.2 % control.
